Where a SMILES comes first, the peptide text is derived from it. The star is where a group is joined. Cbz = O=C(OCc1ccccc1)*; CH2F = FC*
Key:
B16F10 cells = assay: DDA-induced cytotoxicity (cell death); format: cell-based
Procedure: (§1) Melanoma cells were seeded into 6-well plates at 60,000 cells per well and AML cells at 250,000 cells/ml. The cells were then treated with control solvent vehicle (1/1000 ethanol in water) or DDA. Where indicated, treated cells were incubated in the presence or absence of each inhibitor for time shown. Cell death was determined by the trypan blue exclusion assay. Cells were scraped and resuspended in trypan blue solution (0.25% (w/v) in PBS) and counted in a Malassez cell under light microscopy. Cell viability was then quantified by counting viable (trypan blue-negative) and dead cells (trypan blue-positive).
(§2) Supplementary Fig. 1. a DDA inhibited m elanom a colony form ation. Melanom a cells were […]
(§3) a 0.5% solution of crystal violet in water and analyzed by microscopy. Images are representative of 5 independent experiments. b Evaluation of DDA-induced cytotoxicity (cytotox) and clonogenicity (clono) inhibition in a subset of human (H) and mouse (M) m elanom a cell lines. T he BRaf status in m elanom a cells lines is shown. […]

SKMEL-28 cells = assay: DDA-induced cytotoxicity (cell death); format: cell-based
Procedure: as §1, §2, §3

[1] = molecular target: T1, human liver-X-receptor LXRα (Homo sapiens, UniProt Q13133); assay: LXRE-luciferase gene reporter assay in HEK293T, LXRα; format: cell-based; details: DDA analogs
T1 construct: expressed in transfected cells; host or cells: HEK293T
T1 sequence (Q13133 1-447): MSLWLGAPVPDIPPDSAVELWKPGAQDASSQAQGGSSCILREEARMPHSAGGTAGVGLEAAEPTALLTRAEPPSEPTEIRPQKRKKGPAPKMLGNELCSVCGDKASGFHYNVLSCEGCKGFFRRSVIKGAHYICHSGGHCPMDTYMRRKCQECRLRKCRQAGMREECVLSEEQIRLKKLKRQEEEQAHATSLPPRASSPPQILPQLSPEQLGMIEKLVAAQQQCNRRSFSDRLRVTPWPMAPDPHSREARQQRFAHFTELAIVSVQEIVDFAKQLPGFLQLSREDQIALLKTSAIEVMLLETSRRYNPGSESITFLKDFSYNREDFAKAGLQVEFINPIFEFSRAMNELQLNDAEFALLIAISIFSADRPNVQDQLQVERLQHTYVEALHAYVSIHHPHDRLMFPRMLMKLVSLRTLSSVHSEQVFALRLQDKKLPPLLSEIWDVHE
T1 sequence (P48443 1-463 partner): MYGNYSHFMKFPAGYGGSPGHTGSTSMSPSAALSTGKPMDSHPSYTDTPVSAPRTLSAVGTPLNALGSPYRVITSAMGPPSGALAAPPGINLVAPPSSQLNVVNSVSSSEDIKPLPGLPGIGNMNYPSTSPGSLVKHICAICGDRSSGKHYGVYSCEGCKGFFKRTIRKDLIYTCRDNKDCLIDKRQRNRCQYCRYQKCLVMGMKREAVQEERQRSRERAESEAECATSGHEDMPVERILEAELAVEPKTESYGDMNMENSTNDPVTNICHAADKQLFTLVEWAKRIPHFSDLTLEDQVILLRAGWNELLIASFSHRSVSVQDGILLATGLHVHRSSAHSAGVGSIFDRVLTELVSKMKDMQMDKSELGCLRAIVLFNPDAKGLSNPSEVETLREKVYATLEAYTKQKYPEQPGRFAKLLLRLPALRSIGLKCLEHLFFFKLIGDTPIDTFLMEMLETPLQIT
From the text: (§4) HEK293T were used for luciferase assays. Cells were transfected using the PolyEthylenImine (PEI) method with human retinoid-X receptor (RXRγ) and human liver-X-receptors (LXRα or LXRβ) with LXRE-Luc; RXRγ and human farnesoid X receptor (FXR) with EcRE-Luc; RXRγ and human steroid and xenobiotic X receptor (SXR) with DR4-Luc; RXRγ and human peroxisome proliferator activated receptors (PPARα, or PPARγ) with PPRE-Luc; RXRγ and human retinoic acid receptor (RARα) with DR1-Luc; human AHR and human ARNT with a DRE-Luc; human vitamin D receptor (VDR) with VDRE-Luc. Cells were transfected with plasmids encoding human glucocorticoid receptor (GR), progesterone receptor (PR), or androgen receptor (AR) with MMTV-Luc; or estrogen receptors (ERα and ERβ) with an ERE-Luc. The day after transfection with the luciferase reporter gene construct, cells were seeded in 12-well plates (50,000 cells per well). After 6 h, cells were then treated with the following ligands dissolved in ethanol: 10 nM estradiol (E2) for ERα and ERβ; 10 nM R1881 for AR; 10 nM R5020 for PR; 10 nM dexamethasone for GR; 10 µM fenofibrate for PPARα; 100 nM rosiglitazone (BRL 49653) for PPARγ; 100 nM cis-retinoic acid (cRA) for RAR; 10 nM dioxine for AHR, 10 µM rifampicine for SXR and 10 µM 22(R) hydroxycholesterol (22(R)HC) for LXRα and LXRβ. At the end of each treatment, cells were lysed in 100 μl lysis buffer (Promega). Luciferase activity was measured using the luciferase assay reagent (Promega), according to the manufacturer’s instructions. Protein concentrations were measured using the Bradford method to normalize luciferase activities. For each condition, luciferase activity was calculated from the data of three independent wells.

[2] = molecular target: T2, human liver-X-receptor LXRβ (Homo sapiens, UniProt P55055); assay: LXRE-luciferase gene reporter assay in HEK293T, LXRβ; format: cell-based; details: DDA analogs
T2 construct: expressed in transfected cells; host or cells: HEK293T
T2 sequence (P55055 whole entry, one chain of several): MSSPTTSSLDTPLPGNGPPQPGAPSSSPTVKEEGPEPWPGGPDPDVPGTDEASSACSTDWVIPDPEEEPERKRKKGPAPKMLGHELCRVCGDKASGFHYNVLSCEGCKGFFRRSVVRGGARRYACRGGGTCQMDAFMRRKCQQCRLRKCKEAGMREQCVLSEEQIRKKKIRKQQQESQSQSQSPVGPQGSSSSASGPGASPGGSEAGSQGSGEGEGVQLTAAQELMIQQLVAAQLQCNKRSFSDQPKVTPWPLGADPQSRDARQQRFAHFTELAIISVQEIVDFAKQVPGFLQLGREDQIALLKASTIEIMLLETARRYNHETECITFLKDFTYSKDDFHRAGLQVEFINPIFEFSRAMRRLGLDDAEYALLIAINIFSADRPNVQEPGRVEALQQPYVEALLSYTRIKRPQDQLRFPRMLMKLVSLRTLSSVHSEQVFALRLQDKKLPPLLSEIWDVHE
From the text: as §4, with “After 6 h, cells were then treated with the following ligands dissolved in ethanol: 10 nM estradiol (E2) for ERα and ERβ; 10 nM R1881 for AR; 10 nM R5020 for PR; 10 nM dexamethasone for GR; 10 µM fenofibrate for PPARα; 100 nM rosiglitazone (BRL 49653) for PPARγ; 100 nM cis-retinoic acid (cRA) for RAR; 10 nM dioxine for AHR, 10 µM rifampicine for SXR and 10 µM 22(R) hydroxycholesterol (22(R)HC) for LXRα and LXRβ. At the end of each treatment, cells were lysed in 100 μl lysis buffer (Promega).” left out

AML cells = assay: Immunoblot of caspase-3 and PARP in AML cells; format: cell-based, human; details: 50 µM z-VAD-fmk alone (0 µM DDA), 24 h
Procedure: Immunoblotting was carried out as described previously. Proteins were separated on SDS-PAGE gels, electro-transferred onto polyvinylidene difluoride membranes and incubated overnight at 4 °C with the following antibodies: anti-Atg3, anti-Atg5 (D1G9), anti-Atg7 (D12B11), anti-Beclin (D40C5), anti-caspase-3 (Cell Signaling), anti-Bcl-2 (Millipore), anti-Bax (Millipore), anti-LC3 (Sigma-Aldrich), anti-LXRα (SantaCruz), anti-LXRβ (SantaCruz), anti-Nur77 (Active motif), anti-NOR1 (R&D systems), anti-PARP (Cell Signaling), anti-Vps34 (Cell Signaling), or anti-Actin (Millipore). For visualization, an ECL plus kit (Amersham Biosciences) was used, and chemiluminescence was measured by autoradiography (Supplementary Fig. 9). Specific bands were quantified with ImageQuant software.
Supplementary Fig. 6. […]
AML cells treated with DDA for 24 h in the absence or presence of 50 µM z- VAD-fmk (a
caspase inhibitor). j Effect of z-VAD-fmk on DDA-induced c ytotox icit y in KG1 and HL60 cells. […]
Images are
representative of 3 independent experim ents.

SMILES	cytotoxicity and clonogenicity inhibition (B16F10 cells)	cytotoxicity and clonogenicity inhibition (SKMEL-28 cells)	LXRα-dependent agonistic or antagonistic activity [1]	LXRβ-dependent agonistic or antagonistic activity [2]	cleaved PARP, densitometry (AML cells)	cleaved casp 3, densitometry (AML cells)
CC(C)CCCC(C)C1CCC2C3CC(n4cncc4CCN)C4(O)CC(O)CCC4(C)C3CCC12C (stereo not shown) [C17]	inactive	inactive	switch from antagonist to agonist activity	–	–	–
CC(C)CCCC(C)C1CCC2C3C[C@@H](NCCO)[C@@]4(O)C[C@@H](O)CC[C@]4(C)C3CC[C@]12C (stereo partly shown) [C41]	–	–	switch from antagonist to agonist activity	antagonist-agonist switch	–	–
COC(=O)C[C@H](NC(=O)[C@H](C)NC(=O)[C@@H](NC(=O)OCc1ccccc1)C(C)C)C(=O)CF [z-VAD-fmk, reference compound] (Cbz-Val-Ala-Asp(OMe)-CH2F)	–	–	–	–	0.6	0.4
